Results on 1 compound are retold here after patent publication US9474759B2 (priority 2011, dated 2016).

Where two headings read alike, the source gives them in different places.

For data set [1], the system named is norovirus (NV replicon-harboring HG23 cells). Kind of data set: NV replicon-harboring cells (HG23), NV genome levels by qRT-PCR (Example 1). The note with it: read-out: ED50, effective dose that inhibits 50% of norovirus replication, NV genome levels at 24 hrs post-treatment. Type of data set: cell-based, Norwalk virus. (A replicon is a self-replicating genome or part of one, used to study replication in cells.)

The test system of data set [2] is Norwalk virus (HG23 cells). Nature of the data set: microbe, parasite or virus in culture. Type of data set: cell-based. Conditions: HG23, read-out: Inhibition [ED50 (μM)] against various viruses: Calicivirus, HG23 cells.
Another data set has as its system TGEV. Kind of data set: Cell-based screening, TGEV in ST cells (Example 2). Details: species or system transmissible gastroenteritis virus. The note with it: Alphacoronavirus 1; ST cells; read-out: Inhibition [ED50 (μM)] against various viruses: Coronavirus, TGEV. How it is done:
(§1) 3. Cell-based screening of inhibitor. The effects of each inhibitor on the viral replication were examined. The list of viruses and corresponding cell lines are listed above in Table 2. Briefly, confluent cells were inoculated with virus at a MOI of 5 or 0.05 for 1 hr, and medium was replaced with medium containing mock-medium or each compound (up to 100 μM). The virus infected cells were further incubated for up to 96 hrs, and the replication of virus was measured by TCID50 assay with the 10-fold dilution of each sample used for virus titration (Reed and Muench, 1938). In some viruses, the virus protein and genome expression levels were detected by Western blot analysis and real-time qRT-PCR, respectively, as described below. The IC50s of the compounds were calculated.

The test system of a further data set is FIPV. Kind of data set: Cell-based screening, FIPV in CRFK cells (Example 2). Details: species or system feline infectious peritonitis virus. The note with it: Alphacoronavirus 1; CRFK cells; read-out: Inhibition [ED50 (μM)] against various viruses: Coronavirus, FIPV. How it is done: as §1
The next data set relates to MHV. Kind of data set: Cell-based screening, MHV in CCL-9.1 cells (Example 2). The note with it: Murine coronavirus; CCL-9.1 cells; read-out: Inhibition [ED50 (μM)] against various viruses: Coronavirus, MHV. Further details: species or system mouse hepatitis virus.
For the next data set, the system named is 229E. Kind of data set: Cell-based screening, 229E in MRC-5 cells (Example 2). Conditions: Human coronavirus 229E, MRC5; MRC-5 cells; read-out: Inhibition [ED50 (μM)] against various viruses: Coronavirus, 229E. Here is the method:
as §1

Another data set relates to HAV. Kind of data set: Cell-based screening, HAV (Example 2). Details: species or system hepatitis A virus. The note with it: Picornaviridae; read-out: Inhibition [ED50 (μM)] against various viruses: Picornavirus, HAV. How it is done: as §1
Data set [3] deals with 3CLpro of NV, MD145, MNV-1. It counts as biochemical, norovirus. Conditions: optimized FRET-based protease assay.
For a further data set, the system named is FECV-1683. Nature of the data set: FECV-1683 replication in CRFK cells, TCID50 method. It counts as cell-based, feline coronavirus. Conditions: Alphacoronavirus 1, MOI 0.05, mean ± SEM. How it is done:
(§2) Crandell Rees feline kidney (CRFK) cells were maintained in minimal essential medium containing 2-5% fetal bovine serum and antibiotics (chlortetracycline [25 μg/ml], penicillin [250 U/ml], and streptomycin [250 μg/ml]). FIPV WSU 79-1146 and FECV WSU 79-1683 strains are the prototypes of serotype II FIPV or FECV, respectively, and were purchased from ATCC (Manassas, Va.).
(§3) The cells were further incubated in the presence of each compound for 1 hr at 37° C. Then […] or FECV-1683 was inoculated to the cells at a multiplicity of infection (MOI) of 0.05 or 5.
(§4) b. TCID50 Method. A standard TCID50 method with the 10-fold dilution of each sample was used for virus titration.

Data set [4] has as its system FIPV-1146. Kind of data set: FIPV-1146 replication in CRFK cells, TCID50 method. It counts as cell-based, feline coronavirus. Conditions: Alphacoronavirus 1, MOI 0.05, mean ± SEM. How it is done:
as §2, §3, §4

The subject of data set [5] is FIPV-1146. Nature of the data set: Combination treatment of CA074-Me and GC373 on FIPV-1146 replication, MacSynergy II. Type of data set: cell-based, feline coronavirus. Conditions: GC373 alone at 0.05 μM, FIPV-infected CRFK cells. Here is the method:
The CRFK cells were incubated with GC373 (0.02˜0.2 μM), CA074-Me (0.5˜5 μM), or the combinations of GC373 (0.02˜0.2 μM) and CA074-Me (0.5˜5 μM) for 1 hr at 37° C. prior to inoculation of FIPV-1146 at an MOI of 0.05. After 24 hrs of incubation, virus replication was assessed with virus titration using the TCID50 method. Drug-drug interactions were analyzed by the three-dimensional model of Prichard and Shipman, using the MacSynergy II software at 95% confidence limits. Theoretical additive interactions were calculated from the dose-response curve for each compound individually, and the calculated additive surface was subtracted from the experimentally determined dose-response surface to give regions of synergistic or antagonistic interactions. The resulting surface appears as horizontal plane at 0% of synergy if the interactions of two compounds are additive. Any peak above or below this plane indicates synergy or antagonism, respectively.

Data set [6] concerns the target NV 3CLpro (codon-optimized, full-length, N-terminal 6 His, recombinant) (Norovirus, UniProt Q83883). Type of data set: biochemical, Norwalk virus (human norovirus GI).
The target of data set [7] is MD145 3CLpro (codon-optimized, full-length, N-terminal 6 His, recombinant) (Lordsdale virus, UniProt P54634). Kind of data set: biochemical. Further details: species or system norovirus strain MD145 (human norovirus GII).
Sequence of MD145 3CLpro (codon-optimized, full-length, N-terminal 6 His, recombinant) (P54634 1009-1189): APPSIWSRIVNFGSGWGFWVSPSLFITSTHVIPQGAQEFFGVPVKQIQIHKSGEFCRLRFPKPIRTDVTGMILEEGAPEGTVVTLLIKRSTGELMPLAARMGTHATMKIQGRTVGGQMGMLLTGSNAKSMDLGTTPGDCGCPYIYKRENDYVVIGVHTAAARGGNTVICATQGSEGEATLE
The target in data set [8] is MNV-1 3CLpro (codon-optimized, full-length, recombinant) (Norovirus, UniProt Q80J95). Nature of the data set: biochemical. Further details: species or system murine norovirus-1 (GV).
Sequence of MNV-1 3CLpro (codon-optimized, full-length, recombinant) (Q80J95 995-1177): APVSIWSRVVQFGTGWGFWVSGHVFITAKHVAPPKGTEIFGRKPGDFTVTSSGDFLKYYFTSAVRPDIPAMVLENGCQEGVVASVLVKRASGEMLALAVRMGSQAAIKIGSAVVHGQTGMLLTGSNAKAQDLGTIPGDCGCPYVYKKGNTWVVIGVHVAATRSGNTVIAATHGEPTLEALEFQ
In data set [9] the target is TGEV 3CLpro (full-length, 6 His, recombinant) (Porcine transmissible gastroenteritis coronavirus strain Purdue, UniProt P0C6V2). Nature of the data set: biochemical. Further details: species or system transmissible gastroenteritis virus (strain Miller).
Sequence of TGEV 3CLpro (full-length, 6 His, recombinant) (P0C6V2 2879-3180): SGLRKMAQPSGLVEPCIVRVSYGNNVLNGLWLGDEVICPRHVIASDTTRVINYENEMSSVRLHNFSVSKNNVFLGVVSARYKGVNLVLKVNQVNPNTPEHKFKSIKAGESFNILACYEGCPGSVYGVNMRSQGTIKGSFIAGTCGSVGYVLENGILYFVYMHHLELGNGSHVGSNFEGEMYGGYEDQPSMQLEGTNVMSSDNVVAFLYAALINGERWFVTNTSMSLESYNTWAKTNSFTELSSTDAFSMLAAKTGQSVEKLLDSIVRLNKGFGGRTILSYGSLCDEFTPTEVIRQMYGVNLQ
The target in data set [10] is SARS-CoV 3CLpro (codon-optimized, N-terminal 6 His, recombinant) (Severe acute respiratory syndrome coronavirus, UniProt P0C6X7). Kind of data set: biochemical.
Data set [11] has as its target PV 3Cpro (codon-optimized, N-terminal 6 His, recombinant) (Poliovirus type 1, UniProt P03300). Kind of data set: biochemical. Details: species or system poliovirus (poliomyelitis virus).
In the next data set the test system is HG23 cells. Conditions: human.

Sequence of NV 3CLpro (codon-optimized, full-length, N-terminal 6 His, recombinant) (Q83883 1101-1281): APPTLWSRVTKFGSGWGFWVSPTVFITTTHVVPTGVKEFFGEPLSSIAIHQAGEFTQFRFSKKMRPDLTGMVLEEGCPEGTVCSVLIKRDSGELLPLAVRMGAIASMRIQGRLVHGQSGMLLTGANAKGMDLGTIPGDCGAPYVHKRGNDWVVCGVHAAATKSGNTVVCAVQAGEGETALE
Sequence of PV 3Cpro (codon-optimized, N-terminal 6 His, recombinant) (P03300 1566-1748 limits assumed): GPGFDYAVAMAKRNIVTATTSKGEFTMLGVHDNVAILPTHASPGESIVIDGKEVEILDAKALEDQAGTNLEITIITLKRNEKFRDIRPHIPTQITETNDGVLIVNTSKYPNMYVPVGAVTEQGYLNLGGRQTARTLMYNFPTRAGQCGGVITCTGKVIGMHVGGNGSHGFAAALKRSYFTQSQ

The IC50 is the concentration that gives 50% inhibition. Consider `CC(C)C[C@H](NC(=O)OCc1ccccc1)C(=O)N[C@H](C=O)C[C@@H]1CCNC1=O` [GC373], for which the EC50 in [1] stood at 2100 nM; in [2], 2.1 µM; with TGEV, 0.3 µM; with FIPV, 0.3 µM; in the data set on MHV it was 2 µM; in the data set with 229E it was 0.2 µM. Also, the EC50 is over 100 µM in the data set with HAV; 0.04 ± 0.01 µM with FECV-1683 (24 hr post infection, read-out: Inhibition [ED50 (μM)] against FECV-1683, 24 hrs); 0.09 ± 0.01 µM with FECV-1683 (48 hr post infection, read-out: Inhibition [ED50 (μM)] against FECV-1683, 48 hrs); 0.07 ± 0.04 µM with FIPV-1146 [4] (24 hr post infection, read-out: Inhibition [ED50 (μM)] against FIPV-1146, 24 hrs); 0.43 ± 0.35 µM with FIPV-1146 [4] (48 hr post infection, read-out: Inhibition [ED50 (μM)] against FIPV-1146, 48 hrs). In data set [3], the “effect on the activity of 3CLpro of NV, MD145, MNV-1 (in words)” value is given as “highly effective”. The “reduction of virus titers” value with FIPV-1146 [5] came to 0.5 log10. Moreover, the half-inhibitory concentration (IC50) in [6] came to 640 nM; in [7] it was 1180 nM; in data set [8] it was 1340 nM; in data set [9], 990 ± 120 nM; in [10], 3480 ± 1590 nM; in data set [11], 2020 ± 1560 nM. In addition, the “TD50, median toxic dose” value in the data set with HG23 cells was over 320 µM.
